Assay results taken from patent publication US8008542B2, “Compositions, cells, and plants that include BKI1, a negative regulator of BRI1-mediated BR signaling” (The Salk Institute for Biological Studies, priority 2007, dated 2011).

Legend:
[1] = tested on: CPD; assay: qRT-PCR of brassinosteroid-regulated gene CPD; assay type: in vivo, Arabidopsis; settings: 100 nM BL for 2.5 hrs
Description: (§1) Plants were treated with 100 nM BL, or a mock treatment for 2.5 hrs. Total RNA was extracted using a Qiagen RNAeasy kit (Valencia, Calif.), and the first strand cDNA was synthesized using Invitrogen Superscript III First-Strand cDNA Synthesis kit. cDNAs were combined with SYBR master mix for PCR. Primers for each gene are shown as follows. CPD (At5g05690): 5′-TTACCGCAAAGCCATCCAA-3′ (SEQ ID NO:10) and 5′-[…]-3′ (SEQ ID NO:11); DWF4 (At3g50660): 5′-[…]-3′ (SEQ ID NO:12) and 5′-[…]-3′ (SEQ ID NO:13); Saur-AC1 (At4g38850): 5′-[…]-3′ (SEQ ID NO:14) and 5′-[…]-3′ (SEQ ID NO:15); and BKI1: 5′-GCTCCGGCGTCGATGA-3′ (SEQ ID NO:16) and 5′-[…]-3′ (SEQ ID NO:17). A U-box gene (At5g15400) was used to normalize the data (5′-[…]-3′ (SEQ ID NO:18) and 5′-TGCTGCCCAACATCAGGTT-3′ (SEQ ID NO:19)). PCR reactions were performed in triplicate or quadruplicate with a Bio-Rad iCycler, and the data were collected and analyzed with Bio-Rad MyiQ Single-Color Real-Time PCR Detection System.

[2] = tested on: Arabidopsis seedlings; assay: Hypocotyl length response to BL, short-day grown seedlings; assay type: in vivo
[3] = tested on: Saur-AC1; assay: qRT-PCR of brassinosteroid-regulated gene Saur-AC1; assay type: in vivo, Arabidopsis; settings: Plus BL (100 nM, 2.5 hrs)
Description: as §1

[4] = tested on: BES1; assay: BES1 phosphorylation status by immunoblot with anti-BES1; assay type: in vivo, Arabidopsis
Description: To determine whether the growth inhibitory effect caused by the over-expression of BKI1-YFP was due to an inhibition of BRI1 signaling, we tested the phosphorylation status of a downstream biochemical marker, BES1 (10), by immunoblot analysis.
Seedlings were grown in short day photoperiods for seven days. At least ten short-day grown seedlings were measured. In FIGS. 2A-B the pBKI1::GUS line was used as a control (control). RNAi-2 and RNAi-7 were two independent RNAi knockdown lines for BKI1. In FIG. 2 C-E, phenotype of plants overexpressing BKI1-FLAG, with Col-0 (left) and a BKI1-FLAG line (right) are shown. 2C. Short-day grown seedlings. 2D. Long-day grown seedlings. 2E. Long-day grown adult plants. In FIG. 2F, leaf morphology of seedlings grown in short days. Col-0 (right) and a BKI1-FLAG line (left) are shown. In FIG. 2G, over-expression of BKI1-YFP leads to a reduced response (hypocotyl length) to BL. At least twenty short-day grown seedlings were measured. In FIG. 2H, over-expression of BKI1-YFP leads to an enhanced response to BRZ220. At least twenty dark-grown seedlings were measured. In FIG. 2I, over-expression of BKI1-YFP results in reduced accumulation of dephosphorylated BES1. Immunoblots with anti-BES1 show levels of phosphorylated BES1 (pBES1) and dephosphorylated BES1. Bottom band: loading control. In FIG. 2J, Over-expression of BKI1-YFP alters the expression of BR-regulated genes. […]

[5] = tested on: plasma membrane-association of BKI1-YFP; assay: Subcellular localization of BKI1-YFP in root tip cells (confocal); assay type: cell-based, Arabidopsis; settings: for plasma membrane-association of BKI1-YFP following BL treatment: wild-type background, grown on 1 μM BRZ220, treated with 1 μM BL
Description: To investigate where in the pathway BKI1 acts, we examined the subcellular localization of the BKI1-YFP fusion protein in plants. BKI1-YFP was localized to both the plasma membrane and the cytosol in root tip cells (FIG. 3A). When the BKI1-YFP line was grown on medium containing 1 μM BRZ220, which reduces the levels of endogenous brassinosteroids (22), the fluorescent signal on the cell surface was enhanced (FIG. 3B).
In FIG. 3A, BKI1-YFP is localized to the plasma membrane and cytosol on MS medium. In FIG. 3B, BRZ220 enhances the association of BKI1-YFP to the plasma membrane. Seedlings were grown on MS medium containing 1 μM BRZ220. In FIG. 3C, BL enhances BKI1-YFP dissociation from the plasma membrane. Seedlings were grown on MS medium containing 1 μM BL. […] Seedlings were grown on MS medium containing 1 μM of BRZ220 and treated with 1 μM BL. J-L. BKI1-YFP is associated with the plasma membrane in bri1-116. Seedlings were grown on MS medium containing 1 μM of BRZ220. bri1-116 is a null allele of BRI1 (19). […] Seedlings were grown on MS medium containing 1 μM BL. […] Seedlings were grown on MS medium containing 1 μM BRZ220. 3D, G, J, M, and P are untreated; E, H, K, N, and Q are treated with BL for 5 min, and F, I, L, O, and R are treated with BL for 10 min.
Seedlings were grown on MS medium containing 1 μM of BRZ220. The time of BL treatment is indicated. Top panels: BKI1-YFP; Lower panels: myriBKI1-YFP. […] Immunoblots with anti-GFP show levels of myriBKI1-YFP and BKI1-YFP. Bottom band: loading control. […] The total ^35S-Met labeled BRI1-KD-HIS co-precipitated by GST-BAK1-KD was defined as “1”. Five replicates were conducted. Error bars indicate standard error. 1, GST-BAK1-KD±35S-BRI1-KD-HIS; 2, GST-BAK1-KD+35S-BRI1-KD-HIS+10 μM of MBP; 3, GST-BAK1-KD+35S-BRI1-KD-HIS+10 μM of MBP-BKI1. […] Without BL, BRI1 kinase is kept in a basal state by both its own carboxyl terminal domain and by an interaction with BKI1. Brassinosteroid binding to the extracellular domain of BRI1 induces a conformational change of the kinase domain, leading to the phosphorylation of the C-terminal domain of BRI1 and BKI1, the dissociation of BKI1 from the plasma membrane, and the release of autoinhibition of BRI1. These events lead to the full activation of BRI1 and its association with BAK1 or other substrates. Plasma membrane-dissociated BKI1 may also regulate other unknown components in the brassinosteroid signaling cascade. BSU1 is a nuclear serine/threonine phosphatase involved in the dephosphorylation of BES1 (27).
The predicted full-length BKI1 was amplified by RT-PCR from total RNA of Col-0 using Pfu DNA polymerase (Stratagene), and cloned into the binary vector pCHF3 that contains a 35S promoter (10), three copies of FLAG ([…], SEQ ID NO:8) fused at the Cterminal end, and the RubisCo small subunit (rbcS) terminator. For the YFP fusion construct, full length BKI1 was cloned into a modified pCHF3 containing a 35S promoter and a C-terminal YFP tag. For the myriBKI1-YFP construct, a myristoylation site (MGICMSR, SEQ ID NO:9) was added to the N-terminus of BKI1-YFP via PCR. All constructs were confirmed by sequencing and transformed into Col-0 plants. The subcellular localization of BKI1-YFP and myriBKI1-YFP was visualized and photographed using a Leica TCS SP2 confocal microscope (Leica Microsystems, Germany).

[6] = tested on: DWF4; assay: qRT-PCR of brassinosteroid-regulated gene DWF4; assay type: in vivo, Arabidopsis; settings: 100 nM BL for 2.5 hrs
Description: as §1

[7] = biological target: T1, CLV1 kinase domain (CLV1-KD) fused with GAL4-DB (in pDBLeu) (UniProt P04386 1-147; Q9SYQ8 660-980, limits assumed); assay: yeast two-hybrid
T1 construct: domain: GAL4-DB;domain: kinase domain; Yeast two-hybrid bait

[8] = biological target: T2, BRL3 kinase domain (BRL3-KD) fused with GAL4-DB (in pDBLeu) (UniProt P04386 1-147; Q9LJF3 794-1164, limits assumed); assay: yeast two-hybrid
T2 construct: domain: GAL4-DB;domain: kinase domain; Yeast two-hybrid bait

[9] = biological target: T3, BRL1 kinase domain (BRL1-KD) fused with GAL4-DB (in pDBLeu) (UniProt P04386 1-147; Q9ZWC8 798-1166, limits assumed); assay: yeast two-hybrid
T3 construct: domain: GAL4-DB;domain: kinase domain; Yeast two-hybrid bait

[10] = biological target: T4, kinase domain of BAK1 (BAK1-KD) in pDBLeu (GAL4-DB fusion) (UniProt P04386 1-147; Q94F62 247-615, limits assumed); assay: yeast two-hybrid
T4 construct: domain: GAL4-DB;domain: kinase domain; Yeast two-hybrid bait

[11] = biological target: T5, kinase domain of NIK1 (NIK1-KD) in pDBLeu (GAL4-DB fusion) (UniProt P04386 1-147; Q9LFS4 270-638, limits assumed); assay: yeast two-hybrid
T5 construct: domain: GAL4-DB;domain: kinase domain; Yeast two-hybrid bait

[12] = biological target: full-length BIN2 in pDBLeu (GAL4-DB fusion) (UniProt P04386 1-147; Q39011 1-380); assay: yeast two-hybrid
[13] = biological target: full length TTL in pDBLeu (GAL4-DB fusion) (Arabidopsis, UniProt P04386 1-147; Q9LVM5 1-324, limits assumed); assay: yeast two-hybrid

CC(C)[C@H](C)[C@@H](O)[C@H](O)[C@@H](C)[C@H]1CC[C@H]2[C@@H]3COC(=O)[C@H]4C[C@H](O)[C@H](O)C[C@]4(C)[C@H]3CC[C@]12C [BL, brassinolide]
expression of CPD (RNA level, WT without BL = 1.00) ([1]; BKI1-YFP line): 0.83±0.05 | expression of CPD (RNA level, WT without BL = 1.00) ([1]; WT): 0.47±0.03 | response to BL treatment (hypocotyl length) ([2]; det2-1 brassinosteroid biosynthetic mutant): highly responsive | sensitivity to BL applications compared to wild type (fold less sensitive) ([2]; plants over-expressing BKI1-YFP, hypocotyl length): at least 100 fold | expression of Saur-AC1 (RNA level, WT without BL = 1.00) ([3]; BKI1-YFP line): 1.65±0.11 | expression of Saur-AC1 (RNA level, WT without BL = 1.00) ([3]; WT): 4.68±0.31 | accumulation of dephosphorylated BES1 ([4]; det2-1, 0.1 μM BL for one hour): strongly stimulated | accumulation of dephosphorylated BES1 ([4]; wild type, 0.1 μM BL for one hour): strongly stimulated | BL-induced dissociation of BKI1-YFP from the plasma membrane ([5]; bri1-104 (kinase inactive allele)): no BL-induced dissociation | BL-induced dissociation of BKI1-YFP from the plasma membrane ([5]; bri1-116 homozygous seedlings (null allele)): failed to induce the dissociation | plasma membrane-association of BKI1-YFP ([5]; grown on medium containing 1 μM BL): reduced | plasma membrane-association of BKI1-YFP following BL treatment ([5]; 10 minutes): undetectable | plasma membrane-association of BKI1-YFP following BL treatment ([5]; after 5 minutes): almost completely gone | expression of DWF4 (RNA level, WT without BL = 1.00) ([6]; BKI1-YFP line): 0.80±0.06 | expression of DWF4 (RNA level, WT without BL = 1.00) ([6]; WT): 0.27±0.01

B1: BKI1 fused with GAL4-AD (BKI1-pEXAD502), full-length BKI1 (other, not shown: large carriers)
chain: METNLQQVKNSSQTFSEKQNPKQEASPSPISSTCSSPSHDFSFTISLQPLSSSSKHISPTLRSPSKTTSSYQQTDPFAVDLSPADEIFFHGHLLPLHLLSHLPVSPRTSTGSYNDGFTLPVKDILPDQPTNNNNNTENAITNISTEAKDDNTEDKAEGEIRVKTKPIKSFSLFGLSKWRKGFESNEREQEQQQQKIKKPMSLDLSHAVKKYIRMLFQKRGNGTQFWNRRQTSSYSFSSSLMGPNGNSKTMINGSYNKRDLIRGRRGELFSAPASMRTSPTNSGHLRVSTAGLSSSSGSTSSSSSDSTMEELQAAIQAAIAHCKNSSAVDRDDKVKDS
notes: Yeast two-hybrid prey; it is put N-terminal here; also called BKI1-FL; At5g42750
binding result [7]: no binding | binding result [8]: no binding | binding result [9]: no binding | binding result [10]: no binding | binding result [11]: no binding | binding result [12]: no binding | binding result [13]: no binding
